The results in this text go back to PubChem BioAssay AID1996.

Values after ≈ are worked out from the molar mass of the structure shown. Where only a bound is given, the exact number is not on record here.

For this series the following is noted: buffer; pH 7.4; 200.0 µM.
What is called solubility (kinetic) is the concentration staying in solution when a stock, usually in DMSO, is diluted into the medium. Molecule `COc1ccc(/C=N/OCC(=O)NCC(C)C)c(OC)c1` registered a solubility (kinetic) of more than 44.2 µg/mL.
Under `Cc1ccc2nc(C)c(C(=O)O)cc2c1` stands more than 30.2 µg/mL.
`CC(=O)NC(=S)Nc1cc(C(=O)O)ccc1Cl` had a solubility (kinetic) of more than 40.9 µg/mL.
Take `NCCS(=O)(=O)O`: the solubility (kinetic) came to 1.2 µg/mL (≈ 9.59 µM).
Under `Cc1ccc(C(=O)N2CCn3c(C)ccc3C2C)cc1` (stereo not given) stands 23.1 µg/mL (≈ 86.1 µM).
With `CC(C)(C)C(=O)O/N=C(\N)COc1cccc(Cl)c1`, the kinetic solubility worked out at 25.4 µg/mL (≈ 89.2 µM).
Then `Cc1cc(C(=O)COC(=O)/C=C/c2cccc(F)c2)c(C)n1C`, with less than 0.7 µg/mL.
Then `COc1ccc(Cl)cc1NC(=O)CN(C)C(=O)c1cccc(S(=O)(=O)N2CCN(C)CC2)c1`, with 67.4 µg/mL (≈ 136 µM).
Then `Cc1ccccc1Oc1ccccc1N`, with 3.9 µg/mL (≈ 19.6 µM); and `Cc1cccc(OCC(=O)NCc2cc(C)nc3ccccc23)c1`, with 5 µg/mL (≈ 15.6 µM).
`CC1([N+](=O)[O-])COC2(OC1)C(=O)Nc1ccccc12` (stereo not given) displayed a solubility (kinetic) of more than 39.6 µg/mL.
Then `CN(CC1COc2ccccc2O1)C(=O)c1ccc(N(C)C)cc1` (stereo not given), with more than 49 µg/mL; and `Cc1ccc(C(=O)N2CCCCC2)cc1S(=O)(=O)N1CCCC1`, with more than 50.5 µg/mL.
`Cn1c(SCC(=O)NC2CCCC2)nnc1C(F)(F)F` had a solubility (kinetic) of more than 46.2 µg/mL.
On to `O=C(COC(=O)CCSc1ccccc1)NCc1ccccc1`, for which the kinetic solubility was more than 49.4 µg/mL.
Under `O=S(=O)(c1ccc(Cl)cc1)n1cnc2ccccc21` stands more than 43.9 µg/mL.
Under `COc1ccc(-c2ccc3c(N)c(C(=O)NC(C)C)sc3n2)cc1OC` stands 30.1 µg/mL (≈ 81 µM); under `CCCC(=O)NC(=S)Nc1ccc(CN2CCOCC2)cc1`, more than 48.2 µg/mL; under `CC(C)(C)NC(=O)NC(=O)CN1CCN(c2ccccc2)CC1`, more than 47.8 µg/mL.
`CN(c1ccccc1)c1nc(N)c([N+](=O)[O-])c(NC2CCCCC2)n1` displayed a kinetic solubility of less than 0.1 µg/mL.
Turning to `CCc1cccc(C)c1NC(=O)COC(=O)CSCc1ccccc1`, the kinetic solubility came out at 13.7 µg/mL (≈ 38.3 µM).
Then `COC(=O)c1sccc1S(=O)(=O)Nc1ccc(C)cc1`, with 5 µg/mL (≈ 16.1 µM).
The molecule `Cc1ccc(NC(=O)CNC(=O)c2cccs2)c(O)c1` registered a kinetic solubility of 21.7 µg/mL (≈ 74.7 µM).
Molecule `COCC(C)NC(=O)c1cc2c(ccc3ccccc32)oc1=O` (stereo not given) registered a solubility (kinetic) of 18.1 µg/mL (≈ 58.1 µM).
Under `Cc1ccc(/C=C2/C(=O)NC(=O)N(Cc3ccc(F)cc3)C2=O)o1` stands 11.4 µg/mL (≈ 34.7 µM).
In the case of `Cn1cccc1/C=C(\C#N)c1ccccc1`, the solubility (kinetic) worked out at 15.4 µg/mL (≈ 73.9 µM).
Then `O=C1c2ccccc2NC(c2ccccc2O)N1O` (stereo not given), with more than 38.4 µg/mL.
The molecule `CC(C)n1c(SCC(=O)N2CCCCC2)nc2c1c(=O)n(C)c(=O)n2C` showed a kinetic solubility of more than 56.9 µg/mL.
Then `Cn1c(OCc2cccnc2)nc2c1c(=O)n(Cc1ccc(F)cc1)c(=O)n2C`, with 7.7 µg/mL (≈ 19.5 µM).
For the molecule `Cc1ccccc1CNC(=O)C(=O)Nc1nccs1`, the kinetic solubility was determined as 1.2 µg/mL (≈ 4.36 µM).
Then `CC1CC(C)(C)NC(=S)O1` (stereo not given), with more than 23.9 µg/mL.
Then `COc1ccc(CCC(=O)NCc2ccccc2Cl)cc1OC`, with more than 50.1 µg/mL; and `O=C1c2cccc3cccc(c23)C(=O)N1c1cccc(O)c1`, with 1.3 µg/mL (≈ 4.49 µM).
In turn, `Cc1ccnc(SCC(=O)Nc2cc(C)on2)n1` gave a solubility (kinetic) of more than 39.6 µg/mL.
Then `O=C1CN(C(=O)COC(=O)CCC(=O)c2ccc(F)cc2)c2ccccc2N1`, with 31.6 µg/mL (≈ 82.2 µM).
Turning to `CN(Cc1c(F)cccc1Cl)C(=O)CNC(=O)c1cccs1`, the kinetic solubility is more than 51.1 µg/mL.
Then `Cc1ccc[n+](CC(=O)c2ccc(Cl)cc2)c1.[Cl-]`, with more than 42.3 µg/mL; and `CSc1ccccc1C(=O)Nc1ccc2c(c1)OCO2`, with more than 43.1 µg/mL; and `Cc1ccc2[nH]c(C)c(CCNC(=O)c3c(N)no[n+]3[O-])c2c1`, with 5 µg/mL (≈ 15.9 µM).
Turning to `CC1CCC(NC(=O)c2cccn2C)CC1` (stereo not given), the kinetic solubility was more than 33 µg/mL.
Turning to `O=C1CCCN=C(Nc2ccc(F)c(Cl)c2)S1`, the solubility (kinetic) was 3.1 µg/mL (≈ 11.4 µM).
`CC1(C)Nc2ccccc2C(=O)N1c1ccc(Br)cc1` yielded a kinetic solubility of 12.1 µg/mL (≈ 36.5 µM).
Under `Cc1ccccc1NC(=O)CCCNC(=O)c1ccc(Cl)cc1` stands 42.6 µg/mL (≈ 129 µM); under `CCOC(=O)c1sc(=S)n(-c2ccccc2Cl)c1C`, 2.7 µg/mL (≈ 8.6 µM); under `Cc1ccc(NC(=O)c2oc3ccccc3c2COC(C)C)cc1S(=O)(=O)N1CCOCC1`, 3.6 µg/mL (≈ 7.62 µM).
Under `N#C/C(=C/c1ccco1)C(N)=S` stands more than 26.7 µg/mL; under `O=C1CC(c2ccc(Cl)cc2)CC(O)=C1C=NCCO` (stereo not given), more than 44.1 µg/mL; under `O=C(NC1CCCC1)C1CC(=O)N(c2ccccc2)C1` (stereo not given), more than 40.9 µg/mL.
Take `S=C(Nc1ccc2c(c1)OCO2)Nc1ccccc1Cl`: the solubility (kinetic) is 32.5 µg/mL (≈ 106 µM).
Then `Cc1ccc(N(Cc2ccccc2)C(=O)c2ccc(F)cc2)cc1`, with 9.1 µg/mL (≈ 28.5 µM).
Consider `O=C(NCCOc1ccccc1)C(=O)c1c[nH]c2ccccc12`, for which the kinetic solubility came to 0.9 µg/mL (≈ 2.92 µM).
Under `Cc1ccn2c(=O)cc(C)nc2c1` stands more than 26.1 µg/mL; under `O=C(NCCc1c[nH]c2ccccc12)c1ccc(Br)o1`, 45.7 µg/mL (≈ 137 µM); under `COc1ccccc1OCc1ccc(C(=O)NC2CCCCC2)o1`, 39.8 µg/mL (≈ 121 µM).
In the case of `OC(CN1CCC(c2c[nH]c3ccccc23)CC1)C(F)(F)F` (stereo not given), the kinetic solubility is more than 46.9 µg/mL.
Under `CCn1c(C(O)c2cc(OC)c(OC)c(OC)c2)nc2ccccc21` (stereo not given) stands 47.7 µg/mL (≈ 139 µM); under `CCNC(=S)N1CCCC(c2nc3ccc(C)cc3[nH]2)C1` (stereo not given), more than 45.4 µg/mL.
Under `O=C(OCC(=O)N1CCCC1)c1cc(=O)c2ccccc2o1` stands more than 45.2 µg/mL.
`COc1cc2nc(-c3ccccc3C)oc(=O)c2cc1OC` yielded a kinetic solubility of less than 0.6 µg/mL.
Under `CCc1cc(C(=O)c2ccc(OC)cc2)c(NC(=O)CN2CCCCC2)s1` stands less than 0.4 µg/mL.
As to `Cc1ccc(C)c(C(C)NC(=S)NC2CCCCC2)c1` (stereo not given), the kinetic solubility was 10.7 µg/mL (≈ 36.8 µM).
Then `COCC(C)n1c(C)cc(C(=O)COC(=O)c2cc(=O)[nH]c3ccccc23)c1C` (stereo not given), with 11 µg/mL (≈ 27.7 µM); and `N#Cc1cccc(C(=O)Nc2cc(S(=O)(=O)N3CCOCC3)ccc2N2CCCC2)c1`, with more than 66.1 µg/mL; and `Cc1ccc(-c2csc3nc[nH]c(=O)c23)cc1C`, with 6.6 µg/mL (≈ 25.7 µM).
Under `C=CCNC(=O)c1cc(-c2cccnc2)nc2ccccc12` stands more than 43.4 µg/mL.
In turn, `O=C(COc1ccc2ccccc2c1)Nc1ccccc1C(=O)O` came in with a solubility (kinetic) of more than 48.2 µg/mL.
For the molecule `COc1ccc(OCC(O)CN2CCOCC2)cc1` (stereo not given), the solubility (kinetic) was found to be 40.1 µg/mL (≈ 150 µM).
Then `Nc1oc2ccccc2c(=O)c1-c1ccc2c(c1)OCO2`, with more than 42.2 µg/mL; and `O=C(CSc1ccccn1)Nc1ccc2[nH]c(=O)[nH]c2c1`, with more than 45.1 µg/mL.
Then `Cc1cc(C)c2c(n1)sc1c(=O)n(Cc3ccc(F)cc3)cnc12`, with less than 0.2 µg/mL.
Under `Cc1ccc(NC(=O)c2ccc(NC(=O)C3CCCCC3C(=O)O)cc2)cc1` (stereo not given) stands more than 57.1 µg/mL; under `C=CCSc1nc(C)c(CC(=C)C)c(=O)[nH]1`, 32.2 µg/mL (≈ 136 µM).
In the case of `O=C(COC(=O)/C=C/c1ccc([N+](=O)[O-])cc1)NCC1CCCCC1`, the solubility (kinetic) was found to be 1.5 µg/mL (≈ 4.33 µM).
Under `Cc1ccccc1CN(C)C(=O)c1ccc2ccccc2n1` stands more than 43.6 µg/mL.
Under `O=C(C1CCCCC1)N1CCc2ccccc21` stands 27.2 µg/mL (≈ 119 µM).
